Data reported in patent publication US6706664B1, “Benzoxazole compounds, process for the preparation thereof and herbicides” (UBE Industries, Ltd., priority 1999, dated 2004).

Legend:
Parameters in all cases: key: 0: normal development; 1: Less damaged; 2: Slightly damaged; 3: Moderately damaged; 4: Severely damaged; 5: All killed
barnyardgrass [1] = test: Herbicidal test for paddy field; format: in vivo, Echinochloa crusgalli; details: paddy field pot, 500 g/ha dropwise at 1.5 leaf stage of barnyardgrass, 3 weeks, rank vs non-treated
How it was run: (§1)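 Under flooded conditions (3 cm water over Ube soil), each compound was delivered by pipet as a diluted wettable powder (0.05% surfactant) at 500 g/ha, timed to 1.5-leaf barnyardgrass. Plants stayed 3 weeks in a 25° C glasshouse before injury was graded from 0 (normal) to 5 (all killed).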

bulrush = test: Herbicidal test for paddy field; format: in vivo, Scrips juncoides; details: paddy field pot, 500 g/ha dropwise at 1.5 leaf stage of barnyardgrass, 3 weeks, rank vs non-treated
How it was run: as §1

monochoria = test: Herbicidal test for paddy field; format: in vivo, Monochoria vaginalis; details: paddy field pot, 500 g/ha dropwise at 1.5 leaf stage of barnyardgrass, 3 weeks, rank vs non-treated
How it was run: as §1

young rice plant = test: Herbicidal test for paddy field; format: in vivo; details: paddy field pot, 500 g/ha dropwise at 1.5 leaf stage of barnyardgrass, 3 weeks, rank vs non-treated
How it was run: as §1

flat sedge = test: Herbicidal test for paddy field; format: in vivo, Cyperus serotinus; details: paddy field pot, 500 g/ha dropwise at 1.5 leaf stage of barnyardgrass, 3 weeks, rank vs non-treated
Procedure: Wagner pots, each having an area of 1/5000 are, were packed with Ube soil (alluvial soil) and planted with seeds or tubers of young rice plant, barnyardgrass, bulrush, flat sedge and monochoria. Then, the pots were filled with water to a depth of 3 cm.
Each wettable powder of the desired compounds (I) shown in Table 1 prepared in accordance with Example 2 was diluted with water containing a surfactant (0.05%) and subjected to dropwise addition treatment by using pipet so that an effective concentration of the compound (I) in each herbicide became 500 g/ha at 1.5 leaf stage of barnyardgrass.
These plants were controlled in a glass house at an average temperature of 25° C. for 3 weeks, and then herbicidal effects thereof were investigated.
The herbicidal effects are evaluated according to the following 6 ranks as compared with non-treated district.
(0: normal development, 1: Less damaged, 2: Slightly damaged, 3: Moderately damaged, 4: Severely damaged, 5: All killed).

livid amaranth = test: Soil treatment test for upland field; format: in vivo, Amaranthus lividus; details: 500 g/ha, glass house 25° C., 3 weeks
How it was run: (§2)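 Herbicidal effect graded on a 0–5 scale (0 normal development, 5 all killed) after 3 weeks in a glasshouse at about 25° C. Compound applied as a soil-surface spray at 500 g/ha right after sowing into Ube alluvial soil; spray water contained 0.05% surfactant.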

corn = test: Soil treatment test for upland field; format: in vivo; details: 500 g/ha, glass house 25° C., 3 weeks
How it was run: as §2

wheat = test: Soil treatment test for upland field; format: in vivo; details: 500 g/ha, glass house 25° C., 3 weeks
How it was run: as §2

soybean = test: Soil treatment test for upland field; format: in vivo; details: 500 g/ha, glass house 25° C., 3 weeks
How it was run: as §2

solgum = test: Soil treatment test for upland field; format: in vivo; details: 500 g/ha, glass house 25° C., 3 weeks
How it was run: as §2

cotton = test: Soil treatment test for upland field; format: in vivo; details: 500 g/ha, glass house 25° C., 3 weeks
How it was run: as §2

blackgrass = test: Soil treatment test for upland field; format: in vivo, Alopecurus aegualis; details: 500 g/ha, glass house 25° C., 3 weeks
How it was run: as §2

annual bluegrass = test: Soil treatment test for upland field; format: in vivo, Poa annua; details: 500 g/ha, glass house 25° C., 3 weeks
How it was run: as §2

green foxtail = test: Soil treatment test for upland field; format: in vivo, Setaria viridis; details: 500 g/ha, glass house 25° C., 3 weeks
How it was run: as §2

Large crabgrass = test: Soil treatment test for upland field; format: in vivo, Digitaria adscendens; details: 500 g/ha, glass house 25° C., 3 weeks
How it was run: as §2

barnyardgrass [2] = test: Soil treatment test for upland field; format: in vivo, Echinochloa crusgalli; details: 500 g/ha, glass house 25° C., 3 weeks
How it was run: as §2

common lambsquartes = test: Soil treatment test for upland field; format: in vivo, Chenopodium album; details: 500 g/ha, glass house 25° C., 3 weeks
How it was run: as §2

sugar beat = test: Soil treatment test for upland field; format: in vivo; details: 500 g/ha, glass house 25° C., 3 weeks
How it was run: as §2

velvetleaf = test: Soil treatment test for upland field; format: in vivo, Abutilon theophrasti; details: 500 g/ha, glass house 25° C., 3 weeks
How it was run: as §2

Compound | Effect Barnyardgrass (barnyardgrass [1]) | Effect Bulrush (bulrush) | Effect Monochoria (monochoria) | Effect Young rice plant (young rice plant) | Effect Flat sedge (flat sedge) | Effects Livid amaranth (livid amaranth) | Effects Corn (corn) | Effects Wheat (wheat) | Effects Soybean (soybean) | Effects Solgum (solgum) | Effects Cotton (cotton) | Effects Blackgrass (blackgrass) | Effects Annual bluegrass (annual bluegrass) | Effects Green foxtail (green foxtail) | Effects Large crabgrass (Large crabgrass) | Effects Barnyardgrass (barnyardgrass [2]) | Effects Common lambsquarters (common lambsquartes) | Effects Sugar beat (sugar beat) | Effects Velvetleaf (velvetleaf)
CC(Oc1cccc(C(F)(F)F)c1)c1nc2cc(Cl)ccc2o1 (centres unmarked) [Compound 138] | 2 | 2 | 3 | 0 | 3 | 5 | 0 | 0 | 0 | 0 | 0 | 5 | 3 | 2 | 4 | 1 | 3 | – | –
CCC(Oc1ccc(F)c(C(F)(F)F)c1)c1nc2cc(C#N)ccc2o1 (centres unmarked) [Compound 189] | 5 | 5 | 5 | 2 | 5 | – | – | – | – | – | – | – | – | – | – | – | – | – | –
CCCC(Oc1ccc(F)c(C(F)(F)F)c1)c1nc2cc(F)c(F)cc2o1 (centres unmarked) [Compound 286] | 4 | 5 | 5 | 3 | 3 | – | – | – | – | – | – | – | – | – | – | – | – | – | –
CCC(Oc1ccc(F)c(C(F)(F)F)c1)c1nc2cc(C#N)c(F)cc2o1 (centres unmarked) [Compound 346] | 5 | 5 | 5 | 2 | 5 | – | – | – | – | – | – | – | – | – | – | – | – | – | –
CCCC(Oc1ccc(F)c(C(F)(F)F)c1)c1nc2cc(C#N)c(F)cc2o1 (centres unmarked) [Compound 348] | 4 | 4 | 5 | 2 | 4 | – | – | – | – | – | – | – | – | – | – | – | – | – | –
CCC(Oc1cccc(C#N)c1)c1nc2cc(C#N)ccc2o1 (centres unmarked) [Compound 392] | 5 | 5 | 5 | 0 | 5 | 5 | 1 | 0 | 0 | 5 | 0 | – | 4 | 5 | 5 | 2 | 3 | 2 | –
CCCC(Oc1cccc(C#N)c1)c1nc2cc(C#N)ccc2o1 (centres unmarked) [Compound 393] | 4 | 5 | 5 | 0 | 5 | – | – | – | – | – | – | – | – | – | – | – | – | – | –
CCC(Oc1cccc(OC(F)(F)F)c1)c1nc2cc(C#N)ccc2o1 (centres unmarked) [Compound 396] | 2 | 5 | 5 | 2 | 5 | 5 | 2 | 2 | 2 | 3 | – | 5 | 5 | 5 | 5 | 5 | 5 | 5 | 5
